Assay results published in patent US10150737B2, “Compounds for controlling arthropods” (priority 2013, dated 2018).

Tests used:
Myzus persicae = Myzus persicae - spray test; type: in vivo; details: Chinese cabbage leaf discs, after 6 days
How it was run: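 Chinese cabbage leaf discs carrying all stages of Myzus persicae sprayed with compound in acetone/DMF diluted in water with 1000 ppm emulsifier. Efficacy (% aphids killed) assessed after 6 days.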

Spodoptera frugiperda = Spodoptera frugiperda - spray test; type: in vivo; details: caterpillars on maize leaf discs, after 7 days
How it was run: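 Maize leaf discs sprayed with compound formulated in acetone/DMF and diluted in water containing 1000 ppm alkylaryl polyglycol ether emulsifier, then infested with armyworm caterpillars after drying. Efficacy scored after 7 days as % caterpillars killed (100% all, 0% none).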

Musca domestica = Musca domestica test; type: in vivo; details: application rate 100 ppm; adult houseflies; after 2 days
How it was run: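 Feeding exposure: adult Musca domestica, 10 per vessel, given a sponge with sugar solution and test formulation at the desired concentration; % mortality determined on day 2.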

Tetranychus urticae = Tetranychus urticae - spray test, OP-resistant; type: in vivo; details: bean leaf discs, after 6 days
How it was run: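 Compound dissolved in acetone/DMF, diluted with water containing 1000 ppm alkylaryl polyglycol ether emulsifier to test concentrations. Bean leaf discs infested with all stages of spider mites were sprayed; % kill determined after 6 days (100% = all mites dead, 0% = none).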

Amblyomma hebraeum = experiment: Amblyomma hebaraeum test (tick nymphs, immersion); type: in vivo; details: application rate 100 ppm; tick nymphs immersed one minute; after 42 days
How it was run: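 Tick nymphs immersed for one minute in compound diluted in water from a DMSO concentrate, then held on filter paper in a Petri dish in a climate-controlled cabinet. Kill (%) scored after 42 days; 100% means all ticks dead, 0% none.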

Phaedon cochleariae = Phaedon cochleariae - spray test; type: in vivo; details: larvae on Chinese cabbage leaf discs, after 7 days
How it was run: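 Chinese cabbage leaf discs sprayed with compound formulated in acetone/DMF and water containing 1000 ppm emulsifier; once dry, infested with mustard beetle larvae. Efficacy (% larvae killed) scored after 7 days.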

Lucilia cuprina = Lucilia cuprina test; type: in vivo; details: application rate 100 ppm; L1 larvae; after 2 days
How it was run: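 About 20 L1 larvae placed on minced horsemeat treated with compound, formulated in DMSO and diluted with water to test concentration. Kill in % scored after 2 days (100% = all larvae dead, 0% = none).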

Rhipicephalus sanguineus = Rhipicephalus sanguineus - in vitro contact tests with adult brown dog ticks; type: in vivo; details: application rate 5 μg/cm2; after 48 h; ticks dead or moribund
How it was run: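 Test tubes coated with active ingredient in acetone, 5 μg/cm^2 at 900 ppm. 5-10 adult ticks per tube, kept dark at room temperature for 48 h. Ticks then heated at 45-50° C ≤5 min; motionless or uncoordinated ticks scored dead/moribund, efficacy as % dead or moribund.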

Ctenocephalides felis [1] = experiment: Ctenocephalides felis - oral test; type: in vivo; details: application rate 100 ppm in citrated cattle blood; after 2 days
How it was run: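 Compound in DMSO diluted into citrated cattle blood, fed through a parafilm membrane to about 20 unfed adult cat fleas. Kill in % scored after 2 days (100% = all dead).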

[2] = tested on: Boophilus microplus Parkhurst strain, SP-resistant; experiment: Boophilus microplus - dip test; type: in vivo; details: application rate 100 ppm; dip of engorged adult female ticks; after 7 days
How it was run: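 SP-resistant Parkhurst strain engorged adult female Boophilus microplus (8-10 per tube) dipped in DMSO-based compound dilutions in water, then kept in a climate-controlled room. Efficacy scored after 7 days from fertile egg laying, with larval hatch checked after about 42 days; 100% means no fertile eggs.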

Boophilus microplus = Boophilus microplus - injection test; type: in vivo; details: application rate 20 μg/animal; injection into engorged adult female ticks; after 7 days
How it was run: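 Active ingredient in DMSO, 1 μl injected into the abdomen of 5 engorged adult female ticks, then held in a climate-controlled room. Efficacy scored after 7 days from laying of fertile eggs, with non-fertile-looking eggs kept about 42 days for larval hatch; 100% means no fertile eggs.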

[3] = logP determination by HPLC on a reversed-phase column (C18); type: physicochemical; details: for logP^a): HPLC-MS method a); for log P: HPLC-MS
Ctenocephalides felis [4] = experiment: Ctenocephalides felis - in vitro contact tests with adult cat fleas; type: in vivo; details: application rate 5 μg/cm2 (=500 g/ha); after 48 h; fleas dead or moribund
How it was run: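 Tubes coated with compound in acetone (250 μl of 900 ppm solution gives 5 μg/cm^2 on 44.7 cm^2), solvent evaporated, then 5–10 adult fleas added and kept horizontal at room temperature and ambient humidity. After 48 h, dead or moribund (motionless/uncoordinated) fleas scored as % efficacy.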

[5] = reversed-phase column (C18), Table I-T3

| Compound | efficacy (Myzus persicae; application rate 500 g/ha) | efficacy (Spodoptera frugiperda; application rate 500 g/ha) | efficacy (kill) (Musca domestica) | efficacy (Tetranychus urticae; application rate 500 g/ha) | efficacy (kill) (Amblyomma hebraeum) | efficacy (Phaedon cochleariae; application rate 500 g/ha) | efficacy (kill) (Lucilia cuprina) | efficacy (Rhipicephalus sanguineus) | efficacy (kill) (Ctenocephalides felis [1]) | efficacy (laying of fertile eggs) [2] | efficacy (laying of fertile eggs) (Boophilus microplus) | logP^a) ([3]; reversed-phase column (C18)) | log P [3, 5] | efficacy (Ctenocephalides felis [4]) | logP^a) [3] | logP^a) [3, 5] | efficacy (Myzus persicae; application rate 100 g/ha) | efficacy (Spodoptera frugiperda; application rate 100 g/ha) | efficacy (Tetranychus urticae; application rate 100 g/ha) | efficacy (Phaedon cochleariae; application rate 100 g/ha) |
| --- | --- | --- | --- | --- | --- | --- | --- | --- | --- | --- | --- | --- | --- | --- | --- | --- | --- | --- | --- | --- |
| Cc1cc(C(F)(C(F)(F)F)C(F)(F)F)cc(C(F)(F)F)c1-n1cc(-c2cnc(C)c(C(=O)NC3(C#N)CC3)c2)cn1 [I-T3-119] | 90% | 100% | 100% | 100% | 100% | 100% | 100% | 100% | 100% | 100% | 100% | 3.6 | 3.6 | 100% | – | – | – | – | – | – |
| Cc1cc(C(F)(C(F)(F)F)C(F)(F)F)cc(C(F)(F)F)c1-n1cc(-c2cnc(Cl)c(C(=O)NC3CC3)c2)cn1 [I-T3-106] | 100% | 100% | 100% | 100% | 100% | 100% | 100% | 100% | 100% | 100% | 100% | 4.0 | 4.0 | 100% | – | – | – | – | – | – |
| Cc1cc(C(F)(C(F)(F)F)C(F)(F)F)cc(C)c1-n1cc(-c2cnc(Cl)c(C(=O)NC3CC3)c2)cn1 [I-T3-20] | 100% | 100% | 100% | 100% | 100% | 100% | 100% | 100% | 100% | 100% | 100% | – | – | 100% | 3.8 | 3.8 | – | – | – | – |
| CCc1cc(C(F)(C(F)(F)F)C(F)(F)F)cc(C)c1-n1cc(-c2cnc(Cl)c(C(=O)NC3CC3)c2)cn1 [I-T3-109] | 90% | 100% | 100% | 100% | 100% | 100% | 100% | 100% | 100% | 100% | 100% | 4.2 | 4.2 | 100% | – | – | – | – | – | – |
| Cc1cc(C(F)(C(F)(F)F)C(F)(F)F)cc(C)c1-n1cc(-c2ccc(Cl)c(C(=O)NC3(C#N)CC3)c2)cn1 [I-T3-3] | – | – | 100% | – | 100% | – | 100% | 100% | 100% | 100% | 100% | – | – | 100% | 4.2 | 4.2 | 100% | 100% | 100% | 100% |
| CCc1cc(C(F)(F)C(F)(F)F)cc(C)c1-n1cc(-c2ccc(Cl)c(C(=O)NC3CC3)c2)cn1 [I-T3-81] | – | – | 90% | – | 100% | – | 100% | 100% | 100% | 100% | 100% | – | – | 100% | 4.3 | 4.3 | 90% | 100% | 100% | 100% |
| Cc1ncc(-c2cnn(-c3c(Cl)cc(C(F)(C(F)(F)F)C(F)(F)F)cc3Cl)c2)cc1C(=O)NC1(C#N)CC1 [I-T3-92] | 100% | 100% | 100% | 100% | 100% | 100% | 100% | 80% | 100% | 100% | 100% | – | 3.4 | 100% | 3.4 | – | – | – | – | – |
